These compounds were tested against T1, deltaF508 CFTR (Homo sapiens, UniProt P13569, DEL508-508) (assay: CFBE potentiator assay (FLIPR membrane potential, temperature-rescued)). Details: CFBE cells, 3 micromolar forskolin; bin 1 nM-100 nM; read-out: CFBE potentiator EC50 range.
T1 construct: host or cells: CFBE (cystic fibrosis bronchial-derived cell line)
Format: cell-based
Description: Cell culture: HEK293 cells stably expressing human deltaF508 CFTR were cultured in DMEM/F12 medium containing 10% fetal bovine serum (FBS) and 600 micrograms/mL geneticin. For functional CFTR assays, cryo-preserved cells were quickly thawed in a 37° C. water bath, diluted with warm DMEM/F12 medium containing 10% FBS, spun down at 300×g for 5 mins and resuspended in the same medium at a density of 300,000 cells/mL. A cystic fibrosis bronchial-derived cell line complemented with a 4.7 Kb deltaF508 CFTR cDNA (“CFBE”) was obtained from Dr. Dieter Gruenert under a license from UCSF. These cells were cultured in MEM with Earle's salt (Invitrogen)supplemented with 10% fetal bovine serum (Invitrogen) and 300 micrograms/mL hygromycin (Millipore). CFBE cells were grown on flasks coated with a fibronectin solution containing LHC basal medium (Invitrogen), 0.001% bovine serum albumin (Sigma), 1% v/v Vitrogen 100 (BD Bioscience) and 10 micrograms/mL human fibronectin (Life Technologies). All cells were grown at 37° C. and 5% CO2 unless specified for an assay.
CFBE potentiator assay: CFBE cells were dissociated for 10 mins at 37° C. with Hank's balanced salt solution containing 0.6 mM EDTA and 10% of a 0.25% Trypsin/EDTA solution (all from Life Technologies). An equal amount of CFBE cell growth medium (see Cell culture above) was then added to the flasks and cells were spun at 500×g for 10 mins. Cells were re-suspended in cell medium at a density of 150,000 cells/mL and plated in 384-well black, poly-D-Lysine-coated plates (7,500 cells/well). Cells were then grown at 37° C., 5% CO2 for a total of 6-8 days to allow differentiation. Cell medium was changed every 2-3 days. The day before each experiment, culture medium was removed, fresh culture medium was added and cells were placed at 30° C., 5% CO2 for 18-24 hrs to allow temperature rescue of delF508 CFTR. Potentiation activity was measured as described above for HEK cells except cells were stained for exactly 60 mins, compounds (or DMSO for negative control) were mixed with assay buffer containing 3 micromolar forskolin, and the positive control wells had assay buffer containing 3 micromolar forskolin and 9 micromolar VX-770 (Selleckchem).
Data analysis: CFTR activity was defined as maximum fluorescence signal after addition minus baseline fluorescence. All data were normalized to each plate's positive and negative controls and expressed as percent responses. Concentration response curves were analyzed by fitting the data to a 4-parameter logistic equation in Microcal's Origin or IDBS' Activity Base software.

T1 sequence (P13569 with tags, fused parts or gaps DEL508-508): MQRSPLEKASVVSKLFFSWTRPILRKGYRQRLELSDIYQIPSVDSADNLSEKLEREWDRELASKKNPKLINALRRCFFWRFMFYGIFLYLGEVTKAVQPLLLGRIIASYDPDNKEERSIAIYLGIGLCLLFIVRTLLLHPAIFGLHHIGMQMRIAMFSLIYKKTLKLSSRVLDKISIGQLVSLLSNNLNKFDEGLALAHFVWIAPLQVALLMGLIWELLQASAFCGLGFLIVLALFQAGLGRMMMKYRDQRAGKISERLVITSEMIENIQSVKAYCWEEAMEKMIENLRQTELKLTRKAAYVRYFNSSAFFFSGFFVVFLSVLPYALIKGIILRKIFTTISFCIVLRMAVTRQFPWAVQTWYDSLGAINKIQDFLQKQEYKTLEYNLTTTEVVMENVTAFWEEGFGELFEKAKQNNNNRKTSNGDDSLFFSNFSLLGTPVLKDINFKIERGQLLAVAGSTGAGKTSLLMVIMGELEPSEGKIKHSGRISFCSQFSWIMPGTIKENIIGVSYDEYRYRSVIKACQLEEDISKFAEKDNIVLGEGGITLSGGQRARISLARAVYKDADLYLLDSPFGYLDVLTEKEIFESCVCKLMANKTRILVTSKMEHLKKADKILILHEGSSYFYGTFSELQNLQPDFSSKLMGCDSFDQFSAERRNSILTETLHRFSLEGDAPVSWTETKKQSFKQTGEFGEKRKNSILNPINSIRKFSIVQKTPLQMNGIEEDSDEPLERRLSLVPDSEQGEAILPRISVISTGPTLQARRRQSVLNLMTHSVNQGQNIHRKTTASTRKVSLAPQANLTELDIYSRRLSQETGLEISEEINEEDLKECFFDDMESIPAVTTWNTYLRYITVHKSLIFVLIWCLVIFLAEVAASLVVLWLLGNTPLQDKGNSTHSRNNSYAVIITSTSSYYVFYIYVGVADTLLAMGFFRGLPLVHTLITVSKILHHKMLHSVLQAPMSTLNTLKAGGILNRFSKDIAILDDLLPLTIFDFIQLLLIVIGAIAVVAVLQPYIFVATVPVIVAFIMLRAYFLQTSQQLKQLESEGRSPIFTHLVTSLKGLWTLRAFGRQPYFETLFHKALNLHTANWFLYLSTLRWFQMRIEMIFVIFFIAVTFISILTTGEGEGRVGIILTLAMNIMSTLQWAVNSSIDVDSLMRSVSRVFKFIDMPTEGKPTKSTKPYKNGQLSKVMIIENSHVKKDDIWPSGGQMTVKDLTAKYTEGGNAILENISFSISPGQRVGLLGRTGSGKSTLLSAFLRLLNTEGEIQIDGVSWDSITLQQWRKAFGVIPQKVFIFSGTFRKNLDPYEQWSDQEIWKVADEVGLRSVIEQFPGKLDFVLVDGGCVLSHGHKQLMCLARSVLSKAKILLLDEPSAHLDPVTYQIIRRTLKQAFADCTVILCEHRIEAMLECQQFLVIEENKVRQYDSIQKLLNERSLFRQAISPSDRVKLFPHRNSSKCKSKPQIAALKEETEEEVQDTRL

Row | SMILES | EC50 [nM]
1 | Nc1c(N2CCCCC2)c(-c2ccc(F)cc2)nn(-c2ccc(F)c(O)c2)c1=O | 1 to 100
2 | Nc1c(N2CCC2)c(-c2ccccc2)nn(-c2cccc(O)c2)c1=O | 1 to 100
3 | CC(C)(C)c1ccc(-n2nc(-c3ccc(F)cc3)c(N3CCCC3)c(N)c2=O)cc1O | 1 to 100
4 | Cc1ccc(-n2nc(-c3ccc(F)cc3)c(N3CCCCC3)c(N)c2=O)cc1O | 1 to 100
5 | CC(C)c1ccc(-n2nc(-c3ccc(F)cc3)c(N3CCCCC3)c(N)c2=O)cc1O | 1 to 100
6 | CC(C)c1ccc(-n2nc(-c3ccccc3)c(N3CCCC3)c(N)c2=O)cc1O | 1 to 100
7 | Nc1c(N2CCCC2)c(-c2ccc(F)cc2)nn(-c2ccc(F)c(O)c2)c1=O | 1 to 100
8 | Nc1c(N2CCCC2)c(-c2ccc(F)cc2)nn(-c2ccc(Cl)c(O)c2)c1=O | 1 to 100
9 | Nc1c(N2CCCCC2)c(-c2ccncc2)nn(-c2cccc(O)c2)c1=O | 1 to 100
10 | Cc1ccc(-n2nc(-c3ccccc3)c(N3CCCCC3)c(N)c2=O)cc1O | 1 to 100
11 | Nc1c(N2CCCCC2)c(-c2ccc(F)cc2)nn(-c2ccc(C(F)(F)F)c(O)c2)c1=O | 1 to 100
12 | Nc1c(N2CCCC2)c(-c2ccc(F)cc2)nn(-c2ccc(C(F)(F)F)c(O)c2)c1=O | 1 to 100
13 | Cc1ccc(-n2nc(-c3ccc(F)cc3)c(N3CCCC3)c(N)c2=O)cc1O | 1 to 100
14 | Cc1ccccc1-c1nn(-c2cccc(O)c2)c(=O)c(N)c1N1CCCCC1 [drawing 38] | 1 to 100
15 | CC(C)(C)c1ccc(-n2nc(-c3ccccc3)c(N3CCCC3)c(N)c2=O)cc1O | 1 to 100
16 | Nc1c(N2CCCC2)c(-c2ccccc2)nn(-c2cccc(O)c2)c1=O | 1 to 100
17 | Nc1c(N2CCCCC2)c(-c2ccnc(C(F)(F)F)c2)nn(-c2cccc(O)c2)c1=O | 1 to 100
18 | CN(C)c1c(-c2ccccc2)nn(-c2cccc(O)c2)c(=O)c1N [drawing 45] | 1 to 100
19 | CC(C)(C)c1ccc(-n2nc(-c3ccccc3)c(N3CCCCC3)c(N)c2=O)cc1O | 1 to 100
20 | Nc1c(N2CCCC2)c(-c2ccccc2)nn(-c2ccc(Cl)c(O)c2)c1=O | 1 to 100

The next lines start with the values.

Row | EC50 [nM] | SMILES
21 | 1 to 100 | CC(C)(C)c1ccc(-n2nc(-c3ccc(F)cc3)c(N3CCCCC3)c(N)c2=O)cc1O [drawing 37]
22 | 1 to 100 | Nc1c(-n2cccn2)c(-c2ccccc2)nn(-c2cccc(O)c2)c1=O
23 | 1 to 100 | CC(C)c1ccc(-n2nc(-c3ccc(F)cc3)c(N3CCCC3)c(N)c2=O)cc1O
24 | 1 to 100 | Nc1c(N2CCCCC2)c(-c2ccc(F)cc2)nn(-c2cccc(O)c2)c1=O
25 | 1 to 100 | Nc1c(N2CCCCC2)c(-c2cccnc2)nn(-c2cccc(O)c2)c1=O
26 | 1 to 100 | CC(C)c1ccc(-n2nc(-c3ccccc3)c(N3CCCCC3)c(N)c2=O)cc1O
27 | 1 to 100 | Nc1c(N2CCCCC2)c(-c2ccccc2)nn(-c2ccc(Cl)c(O)c2)c1=O
28 | 1 to 100 | Nc1c(N2CCCCC2)c(-c2ccccc2)nn(-c2cccc(O)c2)c1=O
29 | 1 to 100 | Nc1c(N2CCCCC2)c(-c2ccccc2)nn(-c2ccc(C(F)(F)F)c(O)c2)c1=O

Same assay, conditions: CFBE cells, 3 micromolar forskolin; bin 100 nM-1 μM; read-out: CFBE potentiator EC50 range

Row | EC50 [nM] | SMILES
30 | 100 to 1000 | CC(CO)n1nc(-c2ccccc2)c(N2CCCCC2)c(N)c1=O (centres unmarked)
31 | 100 to 1000 | Nc1c(N2CCOCC2)c(-c2ccccc2)nn(-c2cccc(O)c2)c1=O
32 | 100 to 1000 | Nc1c(N2CCCCC2)c(-c2ccccc2)nn(Cc2ccccc2)c1=O
33 | 100 to 1000 | Nc1c(N2CCCCC2)c(-c2ccccc2)nn(CC(O)C(F)(F)F)c1=O (centres unmarked)
34 | 100 to 1000 | Nc1c(N2CCCCC2)c(-c2ccccn2)nn(-c2cccc(O)c2)c1=O

Same assay, conditions: CFBE cells, 3 micromolar forskolin; bin 1 μM-10 μM; read-out: CFBE potentiator EC50 range

Row | EC50 [nM] | SMILES
35 | 1000 to 10000 | Nc1c(N2CCCCC2)c(-c2ccccc2)nn(CCCO)c1=O
36 | 1000 to 10000 | N#CCCn1nc(-c2ccccc2)c(N2CCCCC2)c(N)c1=O

Same assay, conditions: CFBE cells, 3 micromolar forskolin; read-out: CFBE potentiator assay pot. pEC50 (converted)

Row | EC50 [nM] | SMILES
37 | 20 | CN(C)c1c(-c2ccccc2)nn(-c2cccc(O)c2)c(=O)c1N [Compound 21, 4-amino-5-(dimethylamino)-2-(3-hydroxyphenyl)-6-phenylpyridazin-3(2H)-one]
38 | 15.8 | Cc1ccccc1-c1nn(-c2cccc(O)c2)c(=O)c(N)c1N1CCCCC1 [Compound 15, 4-amino-2-(3-hydroxyphenyl)-5-(piperidin-1-yl)-6-(o-tolyl)pyridazin-3(2H)-one]

Reference: patent US20260055065A1, “PYRIDAZINONE COMPOUNDS WHICH MODULATE MUTANT PROTEINS FOR TREATING RESPIRATORY DISEASES” (The Hospital for Sick Children, priority 2022, published 2026)
